Source: patent US20230390287A1, “MODULATORS OF PD-L1/PD-1 INTERACTION AND USES THEREOF” (Ramot at Tel-Aviv University Ltd., priority 2021, published 2023)

Tests used:
[1] = Compound stability (no method given); format: physicochemical
PD-1/PD-L1 interaction = PD-1/PD-L1 interaction (Homo sapiens (Human), UniProt Q9NZQ7); assay: HTRF PD-1/PD-L1 binding assay; format: biochemical; set-up: key to HTF assay (100 μM): +: positive compounds using 100 μM on HTRF; details: for HTF assay (100 μM): compounds at 100 μM, hits defined as at least 50% inhibition of PD-1/PD-L1 interaction; for dose-response effect in HTRF: 8 doses starting from 100 μM
Sequence of PD-1/PD-L1 interaction (Q9NZQ7 19-238): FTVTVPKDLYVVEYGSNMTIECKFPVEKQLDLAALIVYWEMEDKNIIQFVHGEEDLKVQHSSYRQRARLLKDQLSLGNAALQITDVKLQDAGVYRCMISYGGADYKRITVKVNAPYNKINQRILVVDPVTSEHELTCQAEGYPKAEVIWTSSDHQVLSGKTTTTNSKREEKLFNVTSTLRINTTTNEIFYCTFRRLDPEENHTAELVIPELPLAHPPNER

recombinant human PD-L1 = recombinant human PD-L1 (Homo sapiens (Human), UniProt Q9NZQ7); assay: Differential scanning fluorimetry (DSF) thermal denaturation; format: binding; details: for thermal shift / stabilization of PD-L1: 100 μM compound, 1% DMSO
Sequence of recombinant human PD-L1 (Q9NZQ7 19-238): as above
Procedure: DSF was performed in a C1000 Touch thermal cycler equipped with a CFX96 optical reaction module (Bio Rad). For all fluorescence measurements, samples contained recombinant human PD-L1 (ThermoFisher) at 500 μg/ml in phosphate buffered saline (PBS), pH 7.4, 5% (m/v) Mannitol, 5% (m/v) Trehalose, 0.02% (v/v) Tween® 80, 2.5-fold SYPRO® Orange, 1% (v/v) DMSO (Sigma-Aldrich) and 100 μM of each compound. The PCR plate was sealed with Optical-Quality Sealing Tape (Bio-Rad) and centrifuged at 300 g for 5 minutes. The DSF assay was carried out by increasing the temperature from 20 to 90° C., with a 1 second hold time every 0.2° C. and fluorescence acquisition using the FRET channel, after an initial incubation step of 10 minutes at 20° C. Control experiments in the absence of DMSO and/or compounds were routinely performed in each microplate.
Data were processed using CFX Manager Software V3.0 (Bio-Rad) and the GraphPad Prism 7. Temperature scan curves were fitted to a dose-response sigmoid function (Boltzmann equation) and the melting temperature (Tm values) were obtained from the midpoint of the transition. Normalization of the RFU was also performed to prevent distraction due to different maximum and minimum values upon compounds treatment. The RFU values from different data sets were converted to a common scale 0-1, where 0 represents the fluorescence of the native protein and 1 the fluorescence of the denatured protein. To monitor the binding properties towards each compound, DSF assays were run in the absence and presence of 100 μM compounds using 1% (v/v) DMSO as vehicle control.
To test this hypothesis, the melting temperature (Tm) of the PD-L1 was determined in thermal denaturation assays by differential scanning fluorimetry (DSF) and checked for a shift in the proteins' Tm (ΔTm) in the presence of the PD-L1 inhibitor candidates. The extent of temperature shift is proportional to the compounds' stabilizing effect and thereby used to infer inhibitors' affinity.

A375 cells = assay: MTT cell viability, A375; format: cell-based, human; details: 1, 10, 100 μM, 48 hours
Procedure: (§1) For the MTT assays, cells were seeded in 96-multi-well plate at a concentration of 7,000 cells per well. Six hours after seeding, cells were treated with the compounds and DMSO as a negative control. Forty-eight hours after the addition of the compounds, 20 μl of MTT (Sigma-Aldrich) dissolved in 5 mg/ml of PBS were added to each well and incubated for 2 hours at 37° C. Solutions were removed, and 100 μl of DMSO were added to each well and gently mixed on a shaker. The absorbance of control and treated wells was read against a DMSO blank at 570 nm using an Epoch micro-plate reader (Biotek). Each hit compound was tested in three replicates, in three independent experiments.
(§2) Human breast cancer MDA-MB-231 and melanoma A375 cells were exposed to increasing concentrations (1, 10, and 100 μM) of selected compounds for 48 hours. Cell viability was normalized to untreated cells. Three different concentrations 100 μM (blue), 10 μM (green) and 1 μM (gray) were tested. Data are presented as mean±SD, N=3, n=3 and N=1, n=3, from three or one independent experiment(s) performed in triplicate.

MDA-MB-231 cells = assay: MTT cell viability, MDA-MB-231; format: cell-based, human; details: 1, 10, 100 μM, 48 hours
Procedure: as §1, §2

[2] = tested on: PD-1/PD-L1 interaction on MDA-MB-231 cells; assay: Cell-based PD-1/PD-L1 inhibition (accessible PD-L1 by flow cytometry), MDA-MB-231; set-up: species or system human; details: 10 μM, 72 hours
Procedure: (§3) PD-1/PD-L1 Inhibition on Human Melanoma and Breast Cancer Cell Lines:
(§4) Cells (0.1×10^6 cells) were tested for PD-1/PD-L1 inhibition by co-incubation of hit compounds, DMSO (background), BMS-202 (Selleckchem) and anti-human PD-L1 (BioxCell, Clone 29E.2A3) (positive controls) for 72 hours in 2 ml DMEM medium. Non-confluent cell cultures were scraped into single-cell suspension, washed with PBS, and counted. Cells were subsequently stained with PD-1 fluorescent proxy for 30 minutes at 4° C., washed twice and resuspended in FACS buffer. Cells were analyzed using BD LSRFortessa (BD Biosciences) and data analyzed with FlowJo software for Mac (FlowJo, LLC 2013-2016). Mean fluorescence intensity (MFI) was derived from each sample. The PD-1/PD-L1 inhibition in cells was measured by a decrease in MFI relative to background.
The selected cell lines were incubated with the selected compounds to assess compound-binding affinities, and consequently PD-1/PD-L1 inhibition. The levels of remaining accessible PD-L1 in these cells were evaluated by FACS analysis using a fluorescence PD-1 proxy. To understand compound activity, different incubation times (24, 48 and 72 hours) were evaluated on MDA-MB-231 breast cancer cell line.
(§5) The remaining accessible PD-L1 was determined by flow cytometry.

[3] = tested on: PD-1/PD-L1 interaction on A375 cells; assay: Cell-based PD-1/PD-L1 inhibition (accessible PD-L1 by flow cytometry), A375; set-up: species or system human; details: A375 stimulated with IFN-γ; 10 μM; 72 hours
Procedure: as §3, §4, §5

[4] = HTRF dose-response starting from 100 μM
[5] = Table A, HTRF dose-response, NA = Not applicable (No dose-response effect)
[6] = Table B, HTRF dose-response, NA = no dose-response effect

Row | SMILES | stability of compound [1] | IC50 (PD-1/PD-L1 interaction; [4]) | IC50 (PD-1/PD-L1 interaction; [5]) | IC50 (PD-1/PD-L1 interaction; [6]) | HTF assay (100 μM) (PD-1/PD-L1 interaction) | interference with the fluorescence-dye in DSF (recombinant human PD-L1) | toxicity (cell viability, MTT) (A375 cells) | toxicity (cell viability, MTT) (MDA-MB-231 cells) | dose-response effect in HTRF (PD-1/PD-L1 interaction) | thermal shift / stabilization of PD-L1 (recombinant human PD-L1) | impact on PD-L1 accessibility / PD-1/PD-L1 interaction [2] | impact on PD-L1 accessibility / PD-1/PD-L1 interaction [3]
1 | CN1CCN(S(=O)(=O)c2ccc(-c3ccc4c(Nc5ccc6nn[nH]c6c5)ccnc4c3)cc2)CC1 [Compound 29] | stability issues | 4 µM | 4 µM | 4 µM | + |  |  |  |  |  |  | 
2 | CCN(CC)CCNc1nc(NCCN(CC)CC)c2nc(-c3ccccc3)c(-c3ccccc3)nc2n1 [Compound 1] |  | 0.186 µM | 0.186 µM | 0.186 µM | + | revealed to interfere | toxicity higher or similar to that obtained for BMS202 | toxicity higher or similar to that obtained for BMS202 |  |  |  | 
3 | CC1(C)OCC(C2OC3OC(C)(C)OC3C2NNC(=O)c2cc3cc(OCc4ccccc4)ccc3[nH]2)O1 (stereo not drawn) [Compound 71] |  | 0.38 µM | 0.38 µM | 0.38 µM | + | revealed to interfere |  |  |  |  |  | 
4 | CC(C)(C)OC(=O)N1CCN(c2cc(-c3ccc(Oc4ccccc4)cc3)n[nH]2)CC1 [Compound 30] |  |  |  |  | + |  |  |  | no dose-response was observed |  |  | 
5 | COc1ccc(-c2nc(N)nc(-c3cc(C)ccc3O)c2Cl)cc1 [Compound 45] |  | 0.596 µM | 0.596 µM | 0.596 µM | + |  |  |  |  |  |  | 
6 | Cc1cc(SCC(=O)c2ccc3c(ccc4ccccc43)c2)cc(C)[o+]1.[Br-] [Compound 47] |  | 0.149 µM | 0.149 µM | 0.149 µM | + |  |  |  |  | stabilization of PD-L1 |  | 
7 | CCCCCCCCSc1nc2ccc(/N=C\c3ccccc3O)cc2s1 [Compound 42] |  | 0.057 µM | 0.057 µM | 0.057 µM | + |  |  |  |  | stabilization of PD-L1 |  | 
8 | O=C(NC1CC1)c1ccc(N2CCC(Cc3ccccc3)CC2)nc1 [Compound 38] |  |  |  |  | + |  |  |  | no dose-response was observed |  |  | 
9 | COc1nc(OCc2cccc(-c3ccccc3)c2C)ccc1CNCCNC(C)=O [BMS202, reference compound] |  |  |  |  |  |  | higher toxicity at the highest concentration | higher toxicity at the highest concentration |  |  | did not exhibit a significant impact | did not exhibit a significant impact
10 | O=C(c1ccc(-c2ccccc2)cc1)c1nc(-c2ccc(-c3ccccc3)cc2)c[nH]1 [Compound 73] |  | 0.149 µM | 0.149 µM | 0.149 µM | + | revealed to interfere | toxicity higher or similar to that obtained for BMS202 | toxicity higher or similar to that obtained for BMS202 |  |  |  | 
11 | Cc1nc(C)c(C(=O)NNC(=O)Cc2ccccc2)cc1C(=O)NNC(=O)Cc1ccccc1 [Compound 84] |  | 1.09 µM | 1.09 µM | 1.09 µM | + |  |  |  |  | stabilization of PD-L1 |  | 
12 | Cc1cc(C)nc(NS(=O)(=O)c2ccc(NC(=O)c3cccnc3Nc3cccc(Cl)c3)cc2)n1 [Compound 75] |  | 1.55 µM | 1.55 µM | 1.55 µM | + |  | toxicity higher or similar to that obtained for BMS202 | toxicity higher or similar to that obtained for BMS202 |  | stabilization of PD-L1 |  | 
13 | CN(C)CCNC(=O)N1CCCN(c2ncnc3cc(-c4ccccc4)sc23)CC1 [Compound 35] |  |  |  |  | + |  |  |  | no dose-response was observed |  |  | 
14 | COc1ccc(-c2nc(N)nc(-c3cc(C)ccc3OC)c2Cl)cc1 [Compound 5] |  | 2.44 µM | 2.44 µM | 2.44 µM | + |  |  |  |  | stabilization of PD-L1 |  | 
15 | CC1CCCCN1C(=O)NCCc1coc(-c2ccc(F)cc2)n1 (stereo not drawn) [Compound 32] |  |  |  |  | + |  |  |  | no dose-response was observed |  |  | 
16 | N#Cc1nc(CC(=O)/C=C/c2ccccc2)c(CC(=O)/C=C/c2ccccc2)nc1C#N [Compound 18] | stability issues | 0.19 µM | 0.19 µM | 0.19 µM | + |  |  |  |  |  |  | 
